How the values were obtained:
[1] = biological target: Delta-type opioid receptor (Homo sapiens, UniProt P41143)
[2] = biological target: Sodium-dependent dopamine transporter (Homo sapiens, UniProt Q01959)
[3] = biological target: Melanocortin receptor 3 (Homo sapiens, UniProt P41968)
[4] = biological target: T1, Alpha-2B adrenergic receptor (Homo sapiens, UniProt P18089)
T1 sequence (P18089 whole entry): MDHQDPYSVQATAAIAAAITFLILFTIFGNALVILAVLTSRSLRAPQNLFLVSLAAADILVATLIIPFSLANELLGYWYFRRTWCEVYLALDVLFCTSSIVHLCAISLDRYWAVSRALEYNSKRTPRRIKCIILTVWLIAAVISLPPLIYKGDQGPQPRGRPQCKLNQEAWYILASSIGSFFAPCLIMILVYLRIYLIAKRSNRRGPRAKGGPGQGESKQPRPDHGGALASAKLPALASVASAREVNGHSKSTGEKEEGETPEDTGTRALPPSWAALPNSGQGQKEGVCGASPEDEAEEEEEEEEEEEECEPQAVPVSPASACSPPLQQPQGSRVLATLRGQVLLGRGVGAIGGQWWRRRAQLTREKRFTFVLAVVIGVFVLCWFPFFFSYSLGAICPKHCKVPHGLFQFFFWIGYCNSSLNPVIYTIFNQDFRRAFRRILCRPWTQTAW

[5] = biological target: T2, Alpha-2A adrenergic receptor (Homo sapiens, UniProt P08913); type: functional, cell-based
T2 sequence (P08913 whole entry): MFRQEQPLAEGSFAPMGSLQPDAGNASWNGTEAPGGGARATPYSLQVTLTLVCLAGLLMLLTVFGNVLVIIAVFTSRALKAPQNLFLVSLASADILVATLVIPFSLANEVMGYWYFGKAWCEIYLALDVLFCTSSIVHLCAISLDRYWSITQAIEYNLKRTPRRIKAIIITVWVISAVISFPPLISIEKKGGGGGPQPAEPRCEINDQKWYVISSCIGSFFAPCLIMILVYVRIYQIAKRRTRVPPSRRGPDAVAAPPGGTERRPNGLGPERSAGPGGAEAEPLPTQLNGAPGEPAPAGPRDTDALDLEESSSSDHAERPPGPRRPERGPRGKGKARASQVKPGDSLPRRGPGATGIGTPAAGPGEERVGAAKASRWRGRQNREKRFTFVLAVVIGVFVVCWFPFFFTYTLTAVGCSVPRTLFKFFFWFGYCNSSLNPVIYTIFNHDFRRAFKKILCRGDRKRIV

[6] = biological target: T3, Muscarinic acetylcholine receptor M2 (Homo sapiens, UniProt P08172); type: functional, cell-based
T3 sequence (P08172 whole entry): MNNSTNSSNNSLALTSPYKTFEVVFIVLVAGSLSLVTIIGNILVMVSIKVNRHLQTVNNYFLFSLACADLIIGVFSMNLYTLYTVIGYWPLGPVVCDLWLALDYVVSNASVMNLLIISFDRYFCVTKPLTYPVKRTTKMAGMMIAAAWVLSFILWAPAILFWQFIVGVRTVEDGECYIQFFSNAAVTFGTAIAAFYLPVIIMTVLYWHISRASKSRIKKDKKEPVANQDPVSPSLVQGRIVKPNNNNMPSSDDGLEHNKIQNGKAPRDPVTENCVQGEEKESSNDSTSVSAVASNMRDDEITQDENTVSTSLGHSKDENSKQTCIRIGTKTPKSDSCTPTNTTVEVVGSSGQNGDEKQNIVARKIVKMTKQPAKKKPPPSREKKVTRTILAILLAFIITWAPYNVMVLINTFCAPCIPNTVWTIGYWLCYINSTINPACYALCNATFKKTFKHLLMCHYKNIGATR

[7] = biological target: T4, B2 bradykinin receptor (Homo sapiens, UniProt P30411)
T4 sequence (P30411 whole entry): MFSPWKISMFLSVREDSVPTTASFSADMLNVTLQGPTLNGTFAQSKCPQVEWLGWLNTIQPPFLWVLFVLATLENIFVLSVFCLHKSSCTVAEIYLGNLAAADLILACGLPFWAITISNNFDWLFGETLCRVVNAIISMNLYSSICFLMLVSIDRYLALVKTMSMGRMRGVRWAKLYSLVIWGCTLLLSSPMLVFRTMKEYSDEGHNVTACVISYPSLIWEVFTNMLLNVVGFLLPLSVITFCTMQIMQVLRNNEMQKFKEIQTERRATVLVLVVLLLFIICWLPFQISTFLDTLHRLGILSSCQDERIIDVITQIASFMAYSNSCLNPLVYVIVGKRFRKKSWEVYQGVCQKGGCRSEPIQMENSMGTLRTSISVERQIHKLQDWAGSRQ

[8] = biological target: T5, Neuropeptide Y receptor type 1 (Homo sapiens, UniProt P25929); settings: read-out: AC50
T5 sequence (P25929 whole entry): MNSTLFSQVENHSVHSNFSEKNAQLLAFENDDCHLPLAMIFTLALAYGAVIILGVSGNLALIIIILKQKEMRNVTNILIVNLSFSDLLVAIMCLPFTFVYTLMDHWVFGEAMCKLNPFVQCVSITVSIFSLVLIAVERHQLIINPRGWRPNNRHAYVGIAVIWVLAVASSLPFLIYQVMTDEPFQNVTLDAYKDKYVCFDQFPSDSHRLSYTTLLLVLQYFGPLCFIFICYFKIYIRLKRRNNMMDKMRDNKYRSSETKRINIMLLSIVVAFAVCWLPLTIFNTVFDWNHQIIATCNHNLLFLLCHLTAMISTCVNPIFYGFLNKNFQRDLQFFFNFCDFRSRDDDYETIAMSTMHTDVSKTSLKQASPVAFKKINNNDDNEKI

[9] = biological target: Glutamate receptor ionotropic, NMDA 1 (Rattus norvegicus, UniProt P35439)
[10] = biological target: T6, Equilibrative nucleoside transporter 1 (Homo sapiens, UniProt Q99808)
T6 sequence (Q99808 whole entry): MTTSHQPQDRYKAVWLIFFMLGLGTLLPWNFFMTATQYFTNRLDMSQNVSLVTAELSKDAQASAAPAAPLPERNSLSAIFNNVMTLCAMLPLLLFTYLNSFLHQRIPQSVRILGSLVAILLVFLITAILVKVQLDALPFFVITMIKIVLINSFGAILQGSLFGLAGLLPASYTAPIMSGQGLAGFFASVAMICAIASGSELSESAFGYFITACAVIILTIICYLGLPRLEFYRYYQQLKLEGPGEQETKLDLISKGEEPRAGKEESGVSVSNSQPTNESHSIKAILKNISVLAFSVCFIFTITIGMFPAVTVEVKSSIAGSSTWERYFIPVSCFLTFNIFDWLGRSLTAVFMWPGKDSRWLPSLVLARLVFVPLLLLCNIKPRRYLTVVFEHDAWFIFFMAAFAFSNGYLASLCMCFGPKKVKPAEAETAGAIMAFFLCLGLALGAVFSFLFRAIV

[11] = biological target: Beta-2 adrenergic receptor (Homo sapiens, UniProt P07550)

Measured: AC50
Note: assay procedure not described here.

Sequence of Melanocortin receptor 3 (P41968 whole entry): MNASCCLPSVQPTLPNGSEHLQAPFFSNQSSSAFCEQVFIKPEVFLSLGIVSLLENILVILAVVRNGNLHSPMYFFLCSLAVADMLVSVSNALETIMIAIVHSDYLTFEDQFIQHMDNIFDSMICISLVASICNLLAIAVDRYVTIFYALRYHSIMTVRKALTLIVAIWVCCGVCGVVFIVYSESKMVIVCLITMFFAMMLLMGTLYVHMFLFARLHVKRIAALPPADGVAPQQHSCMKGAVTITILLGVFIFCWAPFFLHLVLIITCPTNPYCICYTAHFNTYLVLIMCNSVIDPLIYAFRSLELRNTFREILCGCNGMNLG
Sequence of Beta-2 adrenergic receptor (P07550 whole entry): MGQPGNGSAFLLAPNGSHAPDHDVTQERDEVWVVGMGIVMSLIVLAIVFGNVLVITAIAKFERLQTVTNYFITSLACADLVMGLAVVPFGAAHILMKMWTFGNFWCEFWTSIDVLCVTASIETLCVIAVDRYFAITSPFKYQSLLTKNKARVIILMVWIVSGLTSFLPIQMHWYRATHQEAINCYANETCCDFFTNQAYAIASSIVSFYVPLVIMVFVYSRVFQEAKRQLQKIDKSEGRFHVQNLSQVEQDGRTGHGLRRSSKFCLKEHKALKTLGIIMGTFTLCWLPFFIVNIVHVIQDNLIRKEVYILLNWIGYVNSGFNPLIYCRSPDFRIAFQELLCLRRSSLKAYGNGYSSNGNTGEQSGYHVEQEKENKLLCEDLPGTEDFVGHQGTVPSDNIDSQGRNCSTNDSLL
Sequence of Sodium-dependent dopamine transporter (Q01959 whole entry): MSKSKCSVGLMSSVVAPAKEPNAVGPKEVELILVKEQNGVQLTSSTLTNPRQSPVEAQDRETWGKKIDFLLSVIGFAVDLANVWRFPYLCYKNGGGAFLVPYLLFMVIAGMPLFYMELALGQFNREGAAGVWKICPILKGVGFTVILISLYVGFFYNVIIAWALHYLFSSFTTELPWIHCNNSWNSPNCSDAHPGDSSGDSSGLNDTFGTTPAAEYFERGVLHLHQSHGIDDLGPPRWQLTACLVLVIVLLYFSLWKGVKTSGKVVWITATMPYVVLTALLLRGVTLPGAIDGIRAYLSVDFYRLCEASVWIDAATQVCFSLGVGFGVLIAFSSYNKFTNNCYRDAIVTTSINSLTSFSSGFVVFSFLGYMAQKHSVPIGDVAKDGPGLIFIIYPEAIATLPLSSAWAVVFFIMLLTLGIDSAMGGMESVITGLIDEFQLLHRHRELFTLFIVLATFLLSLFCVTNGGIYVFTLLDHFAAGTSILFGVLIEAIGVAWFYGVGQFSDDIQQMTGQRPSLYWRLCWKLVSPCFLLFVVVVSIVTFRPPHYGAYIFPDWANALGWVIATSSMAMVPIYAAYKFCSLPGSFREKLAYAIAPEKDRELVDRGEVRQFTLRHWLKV
Sequence of Delta-type opioid receptor (P41143 whole entry): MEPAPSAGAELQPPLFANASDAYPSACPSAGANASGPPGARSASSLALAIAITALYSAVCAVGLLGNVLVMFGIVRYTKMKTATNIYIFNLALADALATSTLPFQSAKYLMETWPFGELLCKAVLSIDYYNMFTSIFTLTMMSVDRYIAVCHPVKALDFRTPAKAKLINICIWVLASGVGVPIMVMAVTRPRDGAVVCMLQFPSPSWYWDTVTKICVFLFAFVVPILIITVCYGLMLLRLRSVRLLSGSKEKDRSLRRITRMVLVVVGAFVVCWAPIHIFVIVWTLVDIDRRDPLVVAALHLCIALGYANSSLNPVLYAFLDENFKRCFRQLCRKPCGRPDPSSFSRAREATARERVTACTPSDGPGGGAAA

C#CCOc1ccc(N)cc1C(=O)NCCCC [PARSALMIDE]
not listed: [10] | [11]
> 30 µM: all other assays above

CCN1CCCC1CNC(=O)c1cc(S(=O)(=O)CC)c(N)cc1OC (stereo unspecified) [AMISULPRIDE]
1.5 µM: [4]
not listed: [2] | [11]
> 30 µM: all other assays above

COc1cc2ncnc(Nc3ccc(F)c(Cl)c3)c2cc1NC(=O)/C=C/CN1CCCCC1 [DACOMITINIB ANHYDROUS]
> 10 µM: [6]
27 µM: [3]
15 µM: [2]

Nc1cc(-c2ccncc2)c[nH]c1=O [INAMRINONE]
> 10 µM: [11] | [5] | [6] | [9]
not listed: [4]
> 30 µM: all other assays above

NC(=O)CN1CCCC1=O
not listed: [4] | [10] | [11]
> 30 µM: all other assays above

CC(=O)[C@]1(O)Cc2c(O)c3c(c(O)c2[C@@H](O[C@H]2C[C@H](N)[C@H](O)[C@H](C)O2)C1)C(=O)c1ccccc1C3=O [IDARUBICIN]
19 µM: [1]
> 10 µM: [7] | [8]
15 µM: [2]
> 30 µM: [11] | [10] | [9]

Cn1cnc2c(F)c(Nc3ccc(Br)cc3Cl)c(C(=O)NOCCO)cc21 [SELUMETINIB]
> 10 µM: [11]
> 30 µM: [2] | [3] | [10]

Oc1ccc2c(c1)[C@@]13CCCC[C@@]1(O)[C@@H](C2)N(CC1CCC1)CC3 [BUTORPHANOL]
0.18 µM: [1]
not listed: [11]
> 30 µM: all other assays above

OCc1cc(C(O)CNCCCCCCOCCCCc2ccccc2)ccc1O (stereo unspecified) [SALMETEROL]
0.845 µM: [2]
13 µM: [4]
> 10 µM: [5] | [9]
not listed: [6] | [11]
> 30 µM: all other assays above

O=C1CN=C(c2ccccc2)c2cc([N+](=O)[O-])ccc2N1 [NITRAZEPAM]
> 30 µM: [1]
not listed: [4]
> 10 µM: all other assays above

NC1CCN(c2nc3c(cc2F)c(=O)c(C(=O)O)cn3-c2ccc(F)cc2F)C1 (stereo unspecified) [TOSUFLOXACIN]
not listed: [4]
> 30 µM: all other assays above

CCN(CC)CCNC(=O)c1cc(S(C)(=O)=O)ccc1OC [TIAPRIDE]
not listed: [4]
> 30 µM: all other assays above

CN(C(=O)c1c(O)c2ccccc2n(C)c1=O)c1ccccc1 [ROQUINIMEX]
> 30 µM: [2] | [3]

O=C(O)CCNC(=O)c1ccccc1 [BETAMIPRON]
not listed: [4]
> 30 µM: all other assays above

— ChEMBL document CHEMBL5291721, “A preclinical secondary pharmacology resource illuminates target-adverse drug reaction associations of marketed drugs” (Nat Commun, 2023)
